Reference: patent US20240018153A1, “BENZENESULFONAMIDE DERIVATIVES AND USES THEREOF” (2692372 ONTARIO, INC., priority 2020, published 2024)

How the values were obtained:
EGFR = EGFR (Homo sapiens (Human), UniProt P00533); experiment: HTRF KinEASE-TK kinase assay, EGFR; type: biochemical; settings: 3 h preincubation; for remaining activity at 1 µM: 1 μM compound, read-out: % EGFR Remaining activity vs DMSO (1 μM, 3 h); for remaining activity at 10 µM: 10 μM compound, read-out: % EGFR Remaining activity vs DMSO (10 μM, 3 h)
In short: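 HTRF KinEASE-TK format: EGFR pre-incubated with compound at 1 and 10 uM final (0.5% DMSO) in kinase buffer with 2 mM MnCl2, 5 mM MgCl2 and 1 mM TCEP.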

BTK [1] = target: T1, BTK (Homo sapiens (Human), UniProt Q06187); experiment: HTRF KinEASE-TK kinase assay, BTK; type: biochemical; settings: 3 h preincubation; for remaining activity at 1 µM: 1 μM compound, read-out: % BTK Remaining activity vs DMSO (1 μM, 3 h); for remaining activity at 10 µM: 10 μM compound, read-out: % BTK Remaining activity vs DMSO (10 μM, 3 h); for IC50: dose response, read-out: BTK Inhibition IC50
In short: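 BTK activity in HTRF KinEASE-TK format, buffer containing 10 mM MnCl2, 5 mM MgCl2, 1 uM ATPγS and 1 mM TCEP; 45 min reaction with biotinylated substrate and ATP.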

BTK [2] = target: T1, BTK; experiment: Ramos RA1 cell lysis and immunoassay, phospho-BTK (Y223) inhibition; type: cell-based; parameters: key: X: BTK bound and autophosphoration of BTK inhibited in cells; settings: RAMOS cells, compound concentration 1 μM
In short: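 Ramos RA1 cells treated with compound or DMSO for 24 h at 37° C., lysed in RIPA, analysed by Simple Western. Total BTK normalised to β-actin, pBTK (Y223) to total-protein reagent; both expressed relative to DMSO control.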

BMX = BMX (Homo sapiens (Human), UniProt P51813); experiment: HTRF KinEASE-TK kinase assay, BMX; type: biochemical; settings: for remaining activity at 1 µM: 1 uM compound; for remaining activity at 1 µM / remaining activity at 10 µM: 3 h preincubation; for remaining activity at 10 µM: 10 uM compound; for IC50: dose response
In short: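 Purchased BMX (0.333 ng/ul, 3.03 nM) was preincubated with or without inhibitor for 3 h at room temperature, then biotinylated substrate and ATP were added. Reactions were stopped with EDTA-containing buffer holding 31.25 nM SA-XL665 and Eu-antibody, and after 60 min phosphorylation was read as the HTRF 665/620 nm emission ratio.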

JAK3 = JAK3 (Homo sapiens (Human), UniProt P52333); experiment: HTRF KinEASE-TK kinase assay, JAK3; type: biochemical; settings: for remaining activity at 1 µM: read-out: % JAK3 Remaining activity vs DMSO (1 μM, 3 h); for remaining activity at 10 µM: read-out: % JAK3 Remaining activity vs DMSO (10 μM, 3 h)
In short: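 Promega JAK3 at 0.21 nM was preincubated with inhibitor for 3 h at room temperature before biotinylated substrate and ATP were added. The reaction was stopped with EDTA detection buffer containing 31.25 nM SA-XL665 and Eu-antibody. After 60 min, the HTRF 665/620 nm emission ratio reflected substrate phosphorylation.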

FGFR4 = FGFR4 (Homo sapiens (Human), UniProt P22455); experiment: HTRF KinEASE-TK kinase assay, FGFR4; type: biochemical; settings: for remaining activity at 1 µM: read-out: % FGFR4 Remaining activity vs DMSO (1 μM, 3 h); for remaining activity at 10 µM: read-out: % FGFR4 Remaining activity vs DMSO (10 μM, 3 h)
In short: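 Promega FGFR4 at 0.333 ng/ul (5.12 nM) preincubated with or without inhibitor for 3 h at room temperature, then reaction started with biotinylated substrate and ATP. Stopped with EDTA detection buffer containing 31.25 nM SA-XL665 and Eu-antibody; after 60 min, HTRF 665/620 nm ratio read as substrate phosphorylation.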

RIPK2 = RIPK2 (Homo sapiens (Human), UniProt O43353); experiment: In vitro RIPK2 inhibition; type: biochemical; settings: for remaining activity at 1 µM: read-out: % RIPK2 Remaining activity vs DMSO (1 μM, 3 h); for remaining activity at 10 µM: read-out: % RIPK2 Remaining activity vs DMSO (10 μM, 3 h)
Chain of RIPK2 (O43353 whole entry, species assumed): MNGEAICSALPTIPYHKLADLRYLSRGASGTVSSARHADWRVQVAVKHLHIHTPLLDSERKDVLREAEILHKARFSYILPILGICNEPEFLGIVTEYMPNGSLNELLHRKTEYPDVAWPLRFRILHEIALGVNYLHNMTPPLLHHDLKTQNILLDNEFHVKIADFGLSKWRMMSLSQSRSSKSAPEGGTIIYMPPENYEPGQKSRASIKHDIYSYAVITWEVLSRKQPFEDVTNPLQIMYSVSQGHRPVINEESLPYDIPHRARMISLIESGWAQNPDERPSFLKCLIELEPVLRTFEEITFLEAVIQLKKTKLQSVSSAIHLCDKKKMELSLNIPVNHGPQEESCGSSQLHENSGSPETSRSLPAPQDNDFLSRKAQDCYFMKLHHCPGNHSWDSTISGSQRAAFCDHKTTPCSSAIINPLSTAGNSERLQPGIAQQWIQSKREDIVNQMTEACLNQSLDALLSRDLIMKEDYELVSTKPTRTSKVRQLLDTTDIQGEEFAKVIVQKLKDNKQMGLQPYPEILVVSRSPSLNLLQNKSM

Chain of JAK3 (P52333 781-1124): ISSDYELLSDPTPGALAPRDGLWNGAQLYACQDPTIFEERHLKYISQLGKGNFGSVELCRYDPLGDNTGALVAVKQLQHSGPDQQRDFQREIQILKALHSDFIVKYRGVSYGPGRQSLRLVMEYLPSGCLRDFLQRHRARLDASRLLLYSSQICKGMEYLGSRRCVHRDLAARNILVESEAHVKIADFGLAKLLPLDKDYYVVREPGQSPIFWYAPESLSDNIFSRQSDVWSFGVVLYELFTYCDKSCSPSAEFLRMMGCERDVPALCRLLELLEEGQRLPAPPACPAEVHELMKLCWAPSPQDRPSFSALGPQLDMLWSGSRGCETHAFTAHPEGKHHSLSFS
T1 sequence (Q06187 whole entry): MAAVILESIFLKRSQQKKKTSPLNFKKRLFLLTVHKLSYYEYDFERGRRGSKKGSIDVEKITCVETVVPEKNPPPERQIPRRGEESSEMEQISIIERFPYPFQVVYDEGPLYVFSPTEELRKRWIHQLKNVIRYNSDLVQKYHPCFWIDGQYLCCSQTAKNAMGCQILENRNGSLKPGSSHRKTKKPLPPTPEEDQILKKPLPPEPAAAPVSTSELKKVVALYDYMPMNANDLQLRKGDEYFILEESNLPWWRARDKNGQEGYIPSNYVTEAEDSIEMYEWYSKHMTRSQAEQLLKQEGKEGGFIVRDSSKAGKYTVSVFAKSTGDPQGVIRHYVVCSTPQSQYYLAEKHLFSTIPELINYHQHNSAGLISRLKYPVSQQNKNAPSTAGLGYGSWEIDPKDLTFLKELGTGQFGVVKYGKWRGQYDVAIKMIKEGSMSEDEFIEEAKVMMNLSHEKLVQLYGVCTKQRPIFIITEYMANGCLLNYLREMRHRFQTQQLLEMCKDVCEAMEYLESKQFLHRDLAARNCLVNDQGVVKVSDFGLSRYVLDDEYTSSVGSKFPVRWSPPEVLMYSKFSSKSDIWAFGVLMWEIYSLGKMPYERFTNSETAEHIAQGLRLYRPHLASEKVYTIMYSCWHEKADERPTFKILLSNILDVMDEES
Chain of FGFR4 (P22455 22-802): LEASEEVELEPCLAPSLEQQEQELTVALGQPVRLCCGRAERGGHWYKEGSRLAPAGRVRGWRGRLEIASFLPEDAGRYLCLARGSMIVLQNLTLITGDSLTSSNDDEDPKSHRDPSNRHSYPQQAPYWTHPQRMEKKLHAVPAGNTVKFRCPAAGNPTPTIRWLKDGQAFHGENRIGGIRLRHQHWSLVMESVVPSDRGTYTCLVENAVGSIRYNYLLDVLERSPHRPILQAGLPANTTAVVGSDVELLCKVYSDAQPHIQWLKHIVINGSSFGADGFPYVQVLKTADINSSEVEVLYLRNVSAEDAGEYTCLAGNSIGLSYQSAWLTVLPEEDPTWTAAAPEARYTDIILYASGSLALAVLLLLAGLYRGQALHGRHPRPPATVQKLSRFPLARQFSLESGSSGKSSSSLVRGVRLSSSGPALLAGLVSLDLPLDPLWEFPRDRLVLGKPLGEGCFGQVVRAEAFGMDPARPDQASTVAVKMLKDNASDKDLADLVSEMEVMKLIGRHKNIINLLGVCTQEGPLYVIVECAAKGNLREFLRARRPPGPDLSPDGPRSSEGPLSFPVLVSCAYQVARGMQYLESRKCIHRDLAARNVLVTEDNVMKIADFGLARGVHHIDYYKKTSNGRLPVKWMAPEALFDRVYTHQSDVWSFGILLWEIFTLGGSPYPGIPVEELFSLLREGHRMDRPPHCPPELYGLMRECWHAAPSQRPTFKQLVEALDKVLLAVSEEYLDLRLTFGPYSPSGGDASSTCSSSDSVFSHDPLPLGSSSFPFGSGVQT
Chain of EGFR (P00533 25-1210): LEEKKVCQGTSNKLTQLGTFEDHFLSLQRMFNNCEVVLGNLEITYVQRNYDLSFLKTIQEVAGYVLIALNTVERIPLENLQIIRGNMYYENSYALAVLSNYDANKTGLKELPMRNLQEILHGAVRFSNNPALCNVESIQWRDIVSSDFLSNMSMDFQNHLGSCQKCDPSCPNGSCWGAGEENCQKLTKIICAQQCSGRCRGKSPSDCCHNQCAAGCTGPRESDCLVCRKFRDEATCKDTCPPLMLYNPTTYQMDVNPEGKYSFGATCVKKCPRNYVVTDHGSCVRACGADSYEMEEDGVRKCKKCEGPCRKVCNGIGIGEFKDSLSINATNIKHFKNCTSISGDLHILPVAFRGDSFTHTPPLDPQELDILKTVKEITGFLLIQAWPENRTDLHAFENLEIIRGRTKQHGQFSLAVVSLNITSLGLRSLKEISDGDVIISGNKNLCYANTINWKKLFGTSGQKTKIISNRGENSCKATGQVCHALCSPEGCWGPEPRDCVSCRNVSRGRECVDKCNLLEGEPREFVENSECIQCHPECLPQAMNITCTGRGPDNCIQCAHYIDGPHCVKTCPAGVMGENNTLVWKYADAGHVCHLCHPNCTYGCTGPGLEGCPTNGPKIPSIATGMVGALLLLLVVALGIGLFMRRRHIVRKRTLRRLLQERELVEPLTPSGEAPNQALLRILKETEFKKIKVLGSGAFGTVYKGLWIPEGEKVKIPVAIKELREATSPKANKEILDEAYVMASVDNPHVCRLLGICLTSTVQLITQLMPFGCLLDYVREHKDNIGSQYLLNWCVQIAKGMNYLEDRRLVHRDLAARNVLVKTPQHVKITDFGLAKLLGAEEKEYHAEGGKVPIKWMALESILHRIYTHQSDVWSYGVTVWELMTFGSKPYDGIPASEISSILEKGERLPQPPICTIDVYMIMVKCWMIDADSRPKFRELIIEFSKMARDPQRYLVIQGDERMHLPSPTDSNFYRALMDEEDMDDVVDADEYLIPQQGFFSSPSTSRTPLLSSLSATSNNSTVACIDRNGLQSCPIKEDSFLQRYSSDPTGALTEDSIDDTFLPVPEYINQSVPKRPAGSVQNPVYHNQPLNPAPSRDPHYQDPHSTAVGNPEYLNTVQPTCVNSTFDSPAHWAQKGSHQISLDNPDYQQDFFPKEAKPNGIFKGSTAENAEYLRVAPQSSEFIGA
Chain of BMX (P51813 whole entry): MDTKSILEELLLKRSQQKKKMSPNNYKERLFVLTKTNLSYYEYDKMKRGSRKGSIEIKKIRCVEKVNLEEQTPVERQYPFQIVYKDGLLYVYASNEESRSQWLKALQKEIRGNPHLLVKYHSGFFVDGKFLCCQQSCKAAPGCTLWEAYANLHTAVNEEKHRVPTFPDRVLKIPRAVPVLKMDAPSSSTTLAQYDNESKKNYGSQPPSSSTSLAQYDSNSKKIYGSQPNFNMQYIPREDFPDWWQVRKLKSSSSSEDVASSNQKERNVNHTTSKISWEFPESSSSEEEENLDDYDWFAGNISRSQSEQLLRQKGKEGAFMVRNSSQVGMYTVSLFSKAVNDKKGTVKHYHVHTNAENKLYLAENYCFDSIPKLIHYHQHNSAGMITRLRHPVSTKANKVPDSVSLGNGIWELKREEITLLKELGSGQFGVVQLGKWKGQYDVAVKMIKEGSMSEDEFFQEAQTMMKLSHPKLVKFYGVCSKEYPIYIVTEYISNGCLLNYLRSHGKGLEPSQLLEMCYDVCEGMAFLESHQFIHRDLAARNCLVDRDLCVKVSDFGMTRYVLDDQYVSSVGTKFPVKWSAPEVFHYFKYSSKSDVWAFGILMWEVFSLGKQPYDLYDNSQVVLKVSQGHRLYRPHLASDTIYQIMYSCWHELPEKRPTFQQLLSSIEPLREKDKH

| SMILES | remaining activity at 1 µM (EGFR) | remaining activity at 10 µM (EGFR) | IC50 (EGFR; dose response, read-out: EGFR Inhibition IC50) | remaining activity at 1 µM (BTK [1]) | remaining activity at 10 µM (BTK [1]) | IC50 (BTK [1]) | pBTK inhibition (RAMOS, 24 h) (BTK [2]) | remaining activity at 1 µM (BMX) | remaining activity at 10 µM (BMX) | IC50 (BMX) | remaining activity at 1 µM (JAK3) | remaining activity at 10 µM (JAK3) | remaining activity at 1 µM (FGFR4) | remaining activity at 10 µM (FGFR4) | remaining activity at 1 µM (RIPK2) | remaining activity at 10 µM (RIPK2) | IC50 (FGFR4; dose response) |
| --- | --- | --- | --- | --- | --- | --- | --- | --- | --- | --- | --- | --- | --- | --- | --- | --- | --- |
| CS(=O)(=O)c1c(F)c(F)c(F)c(F)c1C(=O)NCCn1nc(-c2ccc(Oc3ccccc3)cc2)c2c(N)ncnc21 [Compound I-38, N-(2-(4-amino-3-(4-phenoxyphenyl)-1H-pyrazolo[3,4-d]pyrimidin-1-yl)ethyl)-2,3,4,5-tetrafluoro-6-(methylsulfonyl)benzamide] | < 50% | < 50% | > 1 µM | < 50% | < 50% | < 1 µM | X | < 50% | < 50% | < 1 µM | > 90% | < 50% | < 50% | < 50% | > 90% | > 90% | – |
| CN(C)S(=O)(=O)c1c(F)c(F)c(F)c(F)c1C(=O)NCCCn1nc(-c2ccc(Oc3ccccc3)cc2)c2c(N)ncnc21 [Compound I-41, N-(3-(4-amino-3-(4-phenoxyphenyl)-1H-pyrazolo[3,4-d]pyrimidin-1-yl)propyl)-2-(N,N-dimethylsulfamoyl)-3,4,5,6-tetrafluorobenzamide] | < 50% | < 50% | – | < 50% | < 50% | – | X | < 50% | < 50% | < 1 µM | > 90% | > 90% | 50 to 90% | < 50% | > 90% | > 90% | – |
| Nc1ncnc2c1c(-c1ccc(Oc3ccccc3)cc1)nn2CCCNC(=O)c1c(F)c(F)c(F)c(F)c1S(N)(=O)=O [Compound I-34, N-(3-(4-amino-3-(4-phenoxyphenyl)-1H-pyrazolo[3,4-d]pyrimidin-1-yl)propyl)-2,3,4,5-tetrafluoro-6-sulfamoylbenzamide] | < 50% | < 50% | – | < 50% | < 50% | < 1 µM | X | < 50% | < 50% | < 1 µM | 50 to 90% | < 50% | < 50% | < 50% | > 90% | > 90% | < 1 µM |
| CN(CCn1nc(-c2ccc(Oc3ccccc3)cc2)c2c(N)ncnc21)C(=O)c1c(F)c(F)c(F)c(F)c1S(N)(=O)=O [Compound I-33, N-(2-(4-amino-3-(4-phenoxyphenyl)-1H-pyrazolo[3,4-d]pyrimidin-1-yl)ethyl)-2,3,4,5-tetrafluoro-N-methyl-6-sulfamoylbenzamide] | > 90% | < 50% | – | < 50% | < 50% | < 1 µM | X | < 50% | < 50% | – | > 90% | 50 to 90% | 50 to 90% | < 50% | 50 to 90% | > 90% | – |
| C[S@+]([O-])c1c(F)c(F)c(F)c(F)c1C(=O)Nc1ncnc2[nH]ccc12 (racemic) [Compound I-46, 2,3,4,5-tetrafluoro-6-(methylsulfinyl)-N-(7H-pyrrolo[2,3-d]pyrimidin-4-yl)benzamide] | > 90% | > 90% | – | 50 to 90% | < 50% | – | X | 50 to 90% | 50 to 90% | – | > 90% | > 90% | 50 to 90% | > 90% | < 50% | 50 to 90% | – |
